pIC50: −log10 of the molar value.
What was measured:
[1] = tested on: patients with diabetic nephropathy; test: Phase II clinical trial in patients with diabetic nephropathy (type 2 diabetes with CKD); assay type: in vivo, human
Protocol: Serum creatinine has also been measured in patients with chronic kidney disease (CKD) enrolled in an open label Phase II clinical trial of RTA 402. These patients received RTA 402 once daily at three dose levels, 25 mg, 75 mg and 150 mg, for a total of 28 days.
A primary outcome measure for this study is determining the effects of RTA 402 administered orally at the three dose strengths on the glomerular filtration rate (as estimated by the MDRD formula) in patients with diabetic nephropathy.
Secondary outcome measures include: (1) an evaluation of the safety and tolerability of oral RTA 402 administered orally at the three different doses, in this patient population; (2) an evaluation of the effects of RTA 402 administered orally at the three dose strengths on the serum creatinine level, creatinine clearance, and urine albumin/creatinine ratio in patients with diabetic nephropathy; (3) an evaluation of the effects of RTA 402 administered orally at the three dose strengths on hemoglobin A1c in all patients enrolled and on insulin response by the hyperinsulinemic euglycemic clamp test in patients enrolled at only one of the study centers; (4) an evaluation of the effects of RTA 402 at the three different doses on a panel of markers of inflammation, renal injury, oxidative stress, and endothelial cell dysfunction.
The patient population selected for this study all had type 2 diabetes with CKD. Most had been diagnosed with poor glycemic control for two decades. CKD was established through elevated serum creatinine (SCr) levels. Most of the patients had been diagnosed with cardiovascular disease (CVD) and most were receiving standard of care (SOC) treatment for diabetes, CKD and CVD, (e.g., insulin, ACEI/ARB, β-blocker, diuretic, and statin). The baseline demographic can be summarized as follows:
The patient inclusion criteria were as follows: (1) diagnosis of type 2 diabetes; (2) serum creatinine in women 1.3-3.0 mg/dL (115-265 μmol/L), inclusive, and in men 1.5-3.0 mg/dL (133-265 μmol/L), inclusive; (3) patient must agree to practice effective contraception; (4) patient must have a negative urine pregnancy test within 72 hours prior to the first dose of study medication; (5) patient is willing and able to cooperate with all aspects of the protocol and is able to communicate effectively; (6) patient is willing and able to provide written informed consent to participate in this clinical study. […]

[2] = tested on: patients with pancreatic cancer; test: Study of RTA 402 in combination with gemcitabine in patients with pancreatic cancer: eGFR; assay type: in vivo, human; parameters: unit not given here
Protocol: FIG. 5—RTA 402 increases GFR in human patients with cancer. Estimated glomerular filtration rate (eGFR) was measured in RTA 402-treated patients enrolled in a multi-month clinical trial for the treatment of cancer. All patients (n=11) dosed through six months were included in the analysis. The dosing information for these patients is provided in Example 5, below.
Some of these patients were enrolled in the Phase I study, whereas others were enrolled in a study of RTA 402 (in combination with gemcitabine) in patients with pancreatic cancer.

[3] = Serum creatinine in toxicology study, monkeys; assay type: in vivo, cynomolgus monkeys; conditions: oral, once daily for 28 days
Protocol: FIGS. 3a-d—RTA 402 reduces serum creatinine levels in monkeys, dogs, and rats. (FIG. 3a) Cynomolgus monkeys were administered RTA 402 orally at the indicated doses once daily for 28 days. The percent reduction of serum creatinine on Day 28 in RTA 402-treated monkeys relative to vehicle-treated control monkeys is shown. (FIG. 3b) RTA 402 was administered orally to beagle dogs at the indicated doses daily for three months. Control animals received vehicle (sesame oil). The percent change in serum creatinine at the three-month time point relative to baseline is shown. (FIG. 3c) Sprague-Dawley rats were administered RTA 402 orally at the indicated doses once daily for a period of one month. The percent reduction of serum creatinine at study completion in RTA 402-treated rats relative to vehicle-treated control rats is shown. (FIG. 3d) Sprague-Dawley rats were administered the amorphous form of RTA 402 orally at the indicated doses once daily for a period of three months. The percent reduction of serum creatinine at study completion in RTA 402-treated rats relative to vehicle-treated control rats is shown. […] For example, a reading of −15 on this axis indicates a 15% reduction in serum creatinine.
Serum creatinine has been measured in several animal species treated with RTA 402 in the course of toxicology studies. […]

[4] = tested on: IFNγ-induced NO production in RAW264.7 macrophages; test: Suppression of IFNγ-induced NO production (Griess reagent system); assay type: cell-based; conditions: Mus musculus; RAW264.7, pre-treated 2 hours, then 20 ng/ml IFNγ for 24 hours

With `COC(=O)[C@]12CCC(C)(C)C[C@H]1[C@H]1C(=O)C=C3[C@@]4(C)C=C(C#N)C(=O)C(C)(C)[C@@H]4CC[C@@]3(C)[C@]1(C)CC2` [RTA 402, methyl-2-cyano-3,12-dioxooleana-1,9-dien-28-oic acid] the A1c reduction ([1]; 28 days, elevated baseline (≧7.0 at baseline), n=16) was 0.50, the “Hemoglobin % A1c reduction” value ([1]; 28 days, elevated baseline (≧7.0 at baseline), n=35) was 0.50 % A1c and the A1c reduction ([1]; 28 days, intent-to-treat, n=21, on top of standard of care) was 0.34. For the same compound, the “Hemoglobin % A1c reduction” value ([1]; 28 days, intent-to-treat, n=56) was “approximately 0.25 % A1c”, the “GFR increase, response rate” value ([1]; 28 days, n=22) was 86% and the GFR improvement ([1]; 28 days, patients with Stage 4 renal disease) was greater than 30%. For the same compound, the “Mean % A1c reduction” value ([1]; 28 days, patients with advanced (Stage 4) renal disease (GFR 15-29 ml/min)) was “approximately 0.77 % A1c”, the “Eight measures of renal function and status” value ([1]; serum creatinine based eGFR, creatinine clearance, BUN, serum phosphorus, serum uric acid, Cystatin C, Adiponectin, Angiotensin II) was “improve significantly” and the eGFR ([2]; Pt 1001, dose 150 mg, cycle 1, BL 68.8) was 78.9. For the same compound, the eGFR ([2]; Pt 1001, dose 150 mg, cycle 2, BL 68.8) was 109.9, the eGFR ([2]; Pt 1001, dose 150 mg, cycle 3, BL 68.8) was 135.7 and the eGFR ([2]; Pt 1001, dose 150 mg, cycle 4, BL 68.8) was 175.5. For the same compound, the eGFR ([2]; Pt 1001, dose 150 mg, cycle 5, BL 68.8) was 175.5, the eGFR ([2]; Pt 1001, dose 150 mg, cycle 6, BL 68.8) was 135.7 and the eGFR ([2]; Pt 1104, dose 300/150 mg, cycle 1, BL 67.3) was 95.7. It also gave an eGFR ([2]; Pt 1104, dose 300/150 mg, cycle 2, BL 67.3) of 71.6, an eGFR ([2]; Pt 1104, dose 300/150 mg, cycle 3, BL 67.3) of 141.2 and an eGFR ([2]; Pt 1104, dose 300/150 mg, cycle 4, BL 67.3) of 95.7. It also gave an eGFR ([2]; Pt 1104, dose 300/150 mg, cycle 5, BL 67.3) of 114.4, an eGFR ([2]; Pt 1104, dose 300/150 mg, cycle 6, BL 67.3) of 114.4 and an eGFR ([2]; Pt 1105, dose 300 mg, cycle 1, BL 82.4) of 106.6. The eGFR ([2]; Pt 1105, dose 300 mg, cycle 2, BL 82.4) was 89.3, the eGFR ([2]; Pt 1105, dose 300 mg, cycle 3, BL 82.4) was 106.6 and the eGFR ([2]; Pt 1105, dose 300 mg, cycle 4, BL 82.4) was 106.6. It also gave an eGFR ([2]; Pt 1105, dose 300 mg, cycle 5, BL 82.4) of 131.6, an eGFR ([2]; Pt 1105, dose 300 mg, cycle 6, BL 82.4) of 170.3 and an eGFR ([2]; Pt 1106, dose 300 mg, cycle 1, BL 89.0) of 106.3. The eGFR ([2]; Pt 1106, dose 300 mg, cycle 2, BL 89.0) was 106.3, the eGFR ([2]; Pt 1106, dose 300 mg, cycle 3, BL 89.0) was 106.3 and the eGFR ([2]; Pt 1106, dose 300 mg, cycle 4, BL 89.0) was 131.2. The eGFR ([2]; Pt 1106, dose 300 mg, cycle 5, BL 89.0) was 131.2, the eGFR ([2]; Pt 1106, dose 300 mg, cycle 6, BL 89.0) was 131.2 and the “Serum creatinine levels relative to control animals” value [3] was “Significant reductions”. It also gave a pIC50 [4] of 8.66.

— patent US8455544B2, “Synthetic triterpenoids and methods of use in the treatment of disease” (Reata Pharmaecuticals, Inc., priority 2008, dated 2013)
